Measured values: ChEMBL document CHEMBL3045770, “Design and synthesis of some thieno[2,3-c]pyridazine derivatives of expected anticancer activity” (2013)

What was measured:
Type in all cases: functional
NCI-H522 = experiment: Cytotoxicity against Homo sapiens (human) NCI-H522 assessed as cell growth at 10 uM after 48 hr by SRB assay relative to control; settings: NCI-H522, 48 h, read-out: Activity
Hs-578T = experiment: Cytotoxicity against Homo sapiens (human) Hs 578T assessed as cell growth at 10 uM after 48 hr by SRB assay relative to control; settings: read-out: Activity
T47D = experiment: Cytotoxicity against Homo sapiens (human) T47D assessed as cell growth at 10 uM after 48 hr by SRB assay relative to control; settings: read-out: Activity
HOP-62 = experiment: Cytotoxicity against Homo sapiens (human) HOP62 assessed as cell growth at 10 uM after 48 hr by SRB assay relative to control; settings: HOP-62, 48 h, read-out: Activity
M14 = experiment: Cytotoxicity against Homo sapiens (human) M14 assessed as cell growth at 10 uM after 48 hr by SRB assay relative to control; settings: M14, 48 h, read-out: Activity
RPMI-8226 = experiment: Cytotoxicity against Homo sapiens (human) RPMI8226 assessed as cell growth at 10 uM after 48 hr by SRB assay relative to control; settings: RPMI-8226, 48 h, read-out: Activity
HCT-116 = experiment: Cytotoxicity against Homo sapiens (human) HCT116 assessed as cell growth at 10 uM after 48 hr by SRB assay relative to control; settings: HCT-116, 48 h, read-out: Activity
SF-539 = experiment: Cytotoxicity against Homo sapiens (human) SF539 assessed as cell growth at 10 uM after 48 hr by SRB assay relative to control; settings: SF-539, 48 h, read-out: Activity
OVCAR-5 = experiment: Cytotoxicity against Homo sapiens (human) OVCAR5 assessed as cell growth at 10 uM after 48 hr by SRB assay relative to control; settings: OVCAR-5, 48 h, read-out: Activity
OVCAR-8 = experiment: Cytotoxicity against Homo sapiens (human) OVCAR8 assessed as cell growth at 10 uM after 48 hr by SRB assay relative to control; settings: OVCAR-8, 48 h, read-out: Activity
MDA-MB-435 = experiment: Cytotoxicity against Homo sapiens (human) MDA-MB-435 assessed as cell growth at 10 uM after 48 hr by SRB assay relative to control; settings: MDA-MB-435, 48 h, read-out: Activity
SR = experiment: Cytotoxicity against Homo sapiens (human) SR assessed as cell growth at 10 uM after 48 hr by SRB assay relative to control; settings: read-out: Activity
786-0 = experiment: Cytotoxicity against Homo sapiens (human) 786-0 assessed as cell growth at 10 uM after 48 hr by SRB assay relative to control; settings: 786-0, 48 h, read-out: Activity
CCRF-CEM = experiment: Cytotoxicity against Homo sapiens (human) CCRF-CEM assessed as cell growth at 10 uM after 48 hr by SRB assay relative to control; settings: read-out: Activity
UACC-257 = experiment: Cytotoxicity against Homo sapiens (human) UACC257 assessed as cell growth at 10 uM after 48 hr by SRB assay relative to control; settings: UACC-257, 48 h, read-out: Activity
CAKI-1 = experiment: Cytotoxicity against Homo sapiens (human) Caki1 assessed as cell growth at 10 uM after 48 hr by SRB assay relative to control; settings: CAKI-1, 48 h, read-out: Activity
SF-295 = experiment: Cytotoxicity against Homo sapiens (human) SF295 assessed as cell growth at 10 uM after 48 hr by SRB assay relative to control; settings: SF-295, 48 h, read-out: Activity
A549 = experiment: Cytotoxicity against Homo sapiens (human) A549 assessed as cell growth at 10 uM after 48 hr by SRB assay relative to control; settings: A549, 48 h, read-out: Activity
Malme-3M = experiment: Cytotoxicity against Homo sapiens (human) MALME-3M assessed as cell growth at 10 uM after 48 hr by SRB assay relative to control; settings: read-out: Activity
LOX IMVI = experiment: Cytotoxicity against Homo sapiens (human) LOXIMVI assessed as cell growth at 10 uM after 48 hr by SRB assay relative to control; settings: read-out: Activity
NCI-H23 = experiment: Cytotoxicity against Homo sapiens (human) NCI-H23 assessed as cell growth at 10 uM after 48 hr by SRB assay relative to control; settings: NCI-H23, 48 h, read-out: Activity
NCI-H322M = experiment: Cytotoxicity against Homo sapiens (human) NCI-H322M assessed as cell growth at 10 uM after 48 hr by SRB assay relative to control; settings: read-out: Activity

SMILES | growth at 10 µM (NCI-H522) | growth at 10 µM (Hs-578T) | growth at 10 µM (T47D) | growth at 10 µM (HOP-62) | growth at 10 µM (M14) | growth at 10 µM (RPMI-8226) | growth at 10 µM (HCT-116) | growth at 10 µM (SF-539) | growth at 10 µM (OVCAR-5) | growth at 10 µM (OVCAR-8) | growth at 10 µM (MDA-MB-435) | growth at 10 µM (SR) | growth at 10 µM (786-0) | growth at 10 µM (CCRF-CEM) | growth at 10 µM (UACC-257) | growth at 10 µM (CAKI-1) | growth at 10 µM (SF-295) | growth at 10 µM (A549) | growth at 10 µM (LOX IMVI) | growth at 10 µM (NCI-H23) | further results
Oc1c(-c2n[nH]c(=S)o2)sc2nnc(-c3ccccc3)c(-c3ccccc3)c12 | 102% | 121% | 105% | 99.7% | 99.5% | 102% | 103% | 106% | 102% | 106% | 93.6% | 83.4% | 108% | 96.1% | 97% | 93.3% | 112% | 107% |  |  | 
Oc1c(-c2nnc(-c3ccccc3)o2)sc2nnc(-c3ccccc3)c(-c3ccccc3)c12 | 97.2% | 97% | 81.1% | 73.7% | 69.6% | 64.8% | 47.4% | 68.5% | 106% | 66.8% | 78.4% | 46.8% | 79.9% | 47.7% | 99.8% | 29.1% | 42.9% |  | 65.7% | 90.4% | growth at 10 µM (Malme-3M): 83.5%; growth at 10 µM (NCI-H322M): 42.5%
CCOC(=O)c1c(Nc2ccc(S(=O)(=O)Nc3nccs3)cc2)nnc(-c2ccccc2)c1-c1ccccc1 | 103% | 118% | 104% | 117% | 104% | 96.5% | 98.6% | 117% | 117% | 102% | 119% | 76.2% | 109% | 91.3% | 104% | 107% | 101% | 110% |  |  | 
Oc1c(-c2nnc(SCc3ccccc3)o2)sc2nnc(-c3ccccc3)c(-c3ccccc3)c12 | 88.5% | 135% | 104% | 105% | 108% | 92.9% | 83.3% | 122% | 98.8% | 104% | 99.4% | 106% | 105% | 66.8% | 134% | 114% |  |  | 84% | 106% | growth at 10 µM (NCI-H322M): 93.6%
CSc1nnc(-c2sc3nnc(-c4ccccc4)c(-c4ccccc4)c3c2O)o1 | 96.6% | 98.4% | 75% | 71.1% | 73% | 67.2% | 60.9% | 84.6% | 101% | 85.8% | 88.4% | 62.5% | 88.7% | 47.4% | 91.6% | 43.5% | 40.9% | 80.5% |  |  | 
